In patent US11124497B1, “Inhibitors of cysteine proteases and methods of use thereof” (priority 2020, dated 2021):

Experiments:
[1] = Cytotoxicity under 229E CPE assay conditions without virus infection (CellTiter Glo)
[2] = molecular target: 229E mPRO (Human coronavirus 229E (HCoV-229E), UniProt P0C6X1); experiment: 229E mPRO enzymatic assay; format: biochemical, Human Coronavirus (HCov) 229E; settings: read-out: 229E mPRO IC50
Description: Compounds were assayed using standard methods to assess compound activity and IC50. […] The assay buffer contained 20 mM of Tris-HCl (pH 7.3), 100 mM of NaCl, 1 mM of EDTA, 5 mM of TCEP and 0.1% BSA.
The compounds were added to an assay plate.
IC50 values of compounds were calculated with the GraphPad Prism software using the nonlinear regression model of log(inhibitor) vs. response—Variable slope (four parameters). The inhibition activity was calculated using the formula below, IC50 values was calculated using the Inhibition % data. Inhibition %=[(Sample−Average ZPE)/(Average HPE−Average ZPE)]*100%^# • ^#HEP: Hundred percent effect controls. […] Containing enzyme+substrate, no compound. • Sample: Compound activity testing wells. Containing compound+enzyme+substrate. • BG: Compound background control wells. Containing compound+substrate, no enzyme.

[3] = molecular target: SARS-COV2 Mpro (Severe acute respiratory syndrome coronavirus 2 (2019-nCoV) (SARS-CoV-2), UniProt P0DTD1); experiment: COVID-19 (nCoV-2019, SARS-CoV2) Mpro enzymatic assay; format: biochemical; settings: 25 nM Mpro, 25 μM substrate
[4] = tested on: HCoV 229E; experiment: HCoV 229E cytopathic effect (CPE) assay; format: cell-based, Human Coronavirus (HCov) 229E; settings: unidentified human coronavirus, CellTiter Glo, read-out: 229 ECPE EC50
Description: Compounds were assayed using standard methods against multiple coronaviral strains, including HCoV 229E and OC43 strains. The antiviral activity of compounds was calculated based on the protection of the virus-induced CPE at each concentration normalized by the virus control.
Cytopathic effect (CPE) was measured by CellTiter Glo following the manufacturer's manual. The antiviral activity of compounds was calculated based on the protection of the virus-induced CPE at each concentration normalized by the virus control.

[5] = in vitro

229E mPRO, sequence (P0C6X1 2966-3267 limits assumed): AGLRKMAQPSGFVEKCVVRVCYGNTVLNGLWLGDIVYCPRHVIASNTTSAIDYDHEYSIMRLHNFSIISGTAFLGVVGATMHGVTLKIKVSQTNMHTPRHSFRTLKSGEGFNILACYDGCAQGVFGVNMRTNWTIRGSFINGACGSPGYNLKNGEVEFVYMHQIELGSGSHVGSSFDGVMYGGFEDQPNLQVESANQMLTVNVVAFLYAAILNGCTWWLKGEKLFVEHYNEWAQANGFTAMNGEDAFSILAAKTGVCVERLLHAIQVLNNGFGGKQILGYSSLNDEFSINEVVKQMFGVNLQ

Row | Structure (SMILES) | CC50 [1] | IC50 [2] | IC50 [3] | EC50 [4] | CC50 [5]
1 | CC(C)CC(NC(=O)c1nc2ncccc2[nH]1)C(=O)NC(C#N)CC1CCNC1=O (single isomer, unassigned) [130 (Isomer 1)] | > 30 µM | – | – | – | –
2 | N#CC1(NC(=O)[C@H](CC2CC2)NC(=O)OCc2ccccc2)C[C@H]2CC[C@@H]1[C@H]1C(=O)NC(=O)[C@@H]21 (single isomer, unassigned) [495 (Isomer 1)] | – | > 30 µM | > 30 µM | – | –
3 | COc1cccc2[nH]c(C(=O)N3CC4(CCC4)CC3C(=O)N[C@H](C#N)C[C@@H]3CCCNC3=O)cc12 (single isomer, unassigned) [719 (Isomer 2)] | – | < 22 µM | < 22 µM | < 22 µM | –
4 | COc1cccc2[nH]c(C(=O)N[C@@H](CC(C)C)C(=O)N[C@@H](C[C@@H]3CCNC3=O)C(O)C#N)cc12 (stereo partly drawn) [Compound 135, N-[(1S)-1-[[(1S)-2-cyano-2-hydroxy-1-[[(3S)-2-oxopyrrolidin-3-yl]methyl]ethyl]carbamoyl]-3-methyl-butyl]-4-methoxy-1H-indole-2-carboxamide] | – | – | – | < 22 µM | > 30 µM
5 | COc1cccc2[nH]c(C(=O)N3CC(c4ccccc4)CC3C(=O)NC(C#N)CC3CCNC3=O)cc12 (centres unmarked) [Compound 170] | – | – | – | – | > 30 µM
6 | COc1cccc2[nH]c(C(=O)N[C@@H](CC(C)C)C(=O)N[C@H](C#N)Cc3cncn3C)cc12 [Compound 225, N-[(1S)-1-[[(1S)-1-cyano-2-(3-methylimidazol-4-yl)ethyl]carbamoyl]-3-methyl-butyl]-4-methoxy-1H-indole-2-carboxamide] | – | > 30 µM | > 30 µM | – | –
7 | N#C[C@H](C[C@@H]1CCNC1=O)NC(=O)[C@H](CC1CC1)n1ccc2[nH]cnc2c1=O [Compound 269] | – | > 30 µM | > 30 µM | – | –
8 | COc1cccc2[nH]c(C(=O)N[C@@H](CC3CC3)C(=O)N[C@@]3(C#N)CCc4cccnc4C3)cc12 [Compound 279] | – | > 30 µM | > 30 µM | – | –
9 | COc1cccc2[nH]c(C(=O)N[C@@H](CC(C)C)C(=O)N[C@@H](C[C@@H]3CCNC3=O)C(C#N)Nc3ccccc3)cc12 (some centres unmarked) [Compound 327] | – | < 22 µM | < 22 µM | 2 to 10 µM | –
10 | CC[C@H]1CN(C(=O)c2cc3c(OC)cccc3[nH]2)[C@@H]1C(=O)N[C@H](C#N)C[C@@H]1CCNC1=O [Compound 391] | – | > 30 µM | > 30 µM | – | –
11 | COc1cccc2[nH]c(C(=O)N[C@@H](CC(C)C)C(=O)N[C@H](C#N)Cc3ccccn3)cc12 [Compound 439] | – | > 30 µM | 10 to 30 µM | – | –
12 | N#C[C@H](C[C@@H]1CCNC1=O)NC(=O)[C@@H]1CS[C@H]2CC[C@H](N)C(=O)N21 [Compound 479] | – | 10 to 30 µM | > 30 µM | – | –
13 | N#C[C@H](C[C@@H]1CCNC1=O)NC(=O)[C@@H]1CCc2ccc(NCC(=O)Oc3ccccc3)c(=O)n21 [Compound 483] | – | > 30 µM | > 30 µM | – | –
14 | N#C[C@H](C[C@@H]1CCNC1=O)NC(=O)[C@@H]1CCc2ccc(NCC(=O)O)c(=O)n21 [Compound 501] | – | > 30 µM | > 30 µM | – | –
15 | COc1nccc2[nH]c(C(=O)N[C@@H](CC3CC3)C(=O)N[C@H](C#N)C[C@@H]3CCCNC3=O)cc12 [Compound 623] | – | > 30 µM | > 30 µM | – | –
16 | COc1cccc2[nH]c(C(=O)N[C@@H](CC(C)C)C(=O)N[C@@H](C[C@@H]3CCNC3=O)C(C#N)NCC(=O)O)cc12 (some centres unmarked) [Compound 653] | – | < 22 µM | < 22 µM | < 22 µM | –
17 | COc1cccc2[nH]c(C(=O)N[C@H](CN[C@H](C#N)C[C@@H]3CCNC3=O)CC(C)(C)C)cc12 [Compound 659] | – | > 30 µM | > 30 µM | – | –
